Measurements from patent US20060078540A1, “Dendritic cell nodes” (priority 2003, published 2006).

Tested on: bone marrow-derived dendritic cells
Experiment: Migration filter chemotaxis assay (chemotaxis index)
Assay type: cell-based
Procedure: The formyl peptide fMLP (formyl-Met-Leu-Phe) chemoattractant has been studied in addition to the protein chemokine MIP-3α. The formyl peptide is a bacterial byproduct that attracts DC's to sites of infection. It has been reported in the literature to be attractive for iDC's in mice and humans. […] For these experiments, DC's were placed on the top of a migration filter containing 5-μm pores with a reservoir of fMLP (or MIP-3α) at the indicated concentration on the other side. After 90 minutes, the number of cells migrating in response to the chemoattractants was counted and compared to controls. In FIG. 18, CI is the chemotaxis index, defined as (number of migrated cells in chemokine)/(number of migrated cells in control without chemokine).
The literature reports CI up to ≈5 max for bone-marrow-derived dendritic cells (BMDC's), but this experiment was carried out on late-stage DC cultures (DC's are starting to mature on Day 7) and the culture was not purified, thus a significant contamination with neutrophils is likely present; thus the real CI is possibly higher.

formyl-Met-Leu-Phe [fMLP]
maximal potency of attraction of dendritic cells (5-μm pore migration filter, 90 minutes, Day 7 unpurified cultures, high concentrations of fMLP): comparable to MIP-3α

MIP-3α: protein chemokine
concentration giving maximal migration (previous experiments, in line with literature reports): 1 µg/mL
